# Laboratory results from US20230240290A1, “USE OF (Z)-3-HEXENYL ESTERS AND METHOD FOR PROTECTING PLANTS AGAINST PESTS” (UNIVERSITAT POLITÈCNICA DE VALÈNCIA, priority 2020, published 2023).
# What was measured:
# plant = assay: Growth and production of plants exposed to the volatile; type: in vivo
# Diaphorina citri = assay: Citrus field assay with sentinel Murraya paniculata seedlings with and without dispenser; type: in vivo
# Method: A Valencia orange field with a high presence of receptive shoots and a population of D. citri adults located in the experimental fields of SWFREC (University of Florida) was selected. […] Sentinel plants that were hung inside the tree canopy were used. The sentinel plants were seedlings of Murraya paniculata with shoots receptive to the laying of D. citri. 7 seedlings with a dispenser (polymeric dispenser that was loaded with 1.5 ml of (Z)-3-hexenyl propanoate) and 7 seedlings without a dispenser were used. Each seedling was distributed in the field following a random block design (using a row of trees as a block), and one seedling with a dispenser and another one without was placed in each block. The seedlings were located at a minimum distance of 50 meters from each other to avoid any edge effect.
# After 4 days of placing the seedlings, these were collected from the field and taken to the laboratory, where the number of eggs per shoot in each of the seedlings was counted under a binocular loupe.
# [1] = system: LOX2 (precursor of JA jasmonic acid); assay: Transcriptional response of LOX2 in Carrizo citrange plants exposed to the volatile; type: in vivo; settings: intact Carrizo citrange plants exposed 24 h; n=6
# Method: Two weeks after seed germination, the seedlings were individually transplanted into pots (8×8×8 cm). The plants were kept in a greenhouse with a plastic cover at approximate climatic conditions of 25±5° C., a relative humidity of 65%±5%, and a natural light photoperiod, about 14:10 h (light:dark). Carrizo citrange plants that had not received any pesticide treatment at 8 weeks of age (approximately 20 cm tall) were used. The volatile (Z)-3-hexenyl propanoate was obtained from Sigma-Aldrich (St. Louis, Mo., USA). The volatile was exposed by using a 2×2 cm piece of filter paper on which 10 μl of a solution containing the corresponding volatile at a concentration of 1:10,000 [(Z)-3-hexenyl propanoate:methanol] was impregnated as an emitting source of the corresponding volatile (Pérez-Hedo, M. et al. Biocontrol, 63: 203-213 (2018)). […]
# The methodology followed for the extraction and quantification of gene expression was described by Pérez-Hedo et al. Journal of Pest Science 3: 543-554 (2015). The primers used were forward primer: 5′-[…]-3′ (SEQ ID NO: 11) and reverse primer: 5′-[…]-3′ (SEQ ID NO: 12) for the quantification of LOX2, forward primer: 5′-[…]-3′ (SEQ ID NO: 13) and reverse primer: 5′-[…]-3′ (SEQ ID NO: 14) for PAL and forward primer: 5′-[…]-3′ (SEQ ID NO: 15) and reverse primer: 5′-[…]-3′ (SEQ ID NO: 16) for the NPR5 gene. […]
# Nesidiocoris tenuis = settings: in vivo
# Method: To know the behavior of the dispensers loaded with (Z)-3-hexenyl propionate under real cultivation conditions, four commercial greenhouses for tomato cv Raf located in Xilxes (Castellón province), with a history of problems with T. absoluta contamination at the end of winter, were selected. An experimental design of randomized blocks was carried out where each greenhouse was considered a block with two treatments per block and 4 repetitions per treatment. […]
# Twenty plants randomly chosen by repetition were sampled weekly for 11 weeks, beginning 30 Jan. […] First, the number of leaflets infested by T. absoluta per plant was counted. Then the number of N. tenuis (adults and nymphs) throughout the apical third of each plant (leaves, flowers and shoots) was counted. Following the methodology described above, 6 samples were taken from the apical part of each plant per repetition, and these samples were immediately introduced into liquid nitrogen to quantify the expression of the PR1 and PIN2 genes (described in Example 1 and Example 2). The expression of these genes was quantified one day before, 4, and 8 weeks after hanging the dispensers in the greenhouses.
structure (smiles),measurement,setting,value
CC/C=C\CCOC(=O)CC [(Z)-3-hexenyl propanoate],Growth or production of the plant,plant,does not reduce the growth or production of the plant
same,"Reduction of D. citri (laying, eggs per shoot)","Diaphorina citri; Valencia orange field, Murraya paniculata sentinel seedlings, dispenser with 1.5 ml, 4 days",more than 70%
same,Laying of D. citri,"Diaphorina citri; citrus plant exposed to the volatile, summary statement",reduced by more than half
same,Transcriptional response of LOX2 compared to control,[1],significantly overexpressed
same,"Population of the plant bug N. tenuis, treatment vs control",Nesidiocoris tenuis,remained the same
